Entries after “also recorded” stand apart in the source; their conditions may differ. Where two headings read alike, the source gives them in different places. Values belong to the compound of their own block, whether it stands above or below them.
Tests used:
[1] = system: FLJXXXXX-derived proteins; experiment: SEC/MS spin column interaction analysis of FLJXXXXX-derived proteins and various compounds (Tables 30-1 to 30-4); type: binding, human; conditions: SEC spin column filtrate, spectral intensity increased with doses of compound and protein
FLJ38897-derived protein = target: T1, FLJ38897-derived protein (Homo sapiens, UniProt P57764); experiment: SEC/MS interaction analysis, FLJ38897-derived protein (GSDMDC1); type: binding; conditions: spin column method; mixture with protein vs buffer solution alone; data not shown
T1 construct: His-tag (N); made in house; host or cells: Escherichia coli BL21star(DE3)pLysS
T1 sequence (P57764 265-484): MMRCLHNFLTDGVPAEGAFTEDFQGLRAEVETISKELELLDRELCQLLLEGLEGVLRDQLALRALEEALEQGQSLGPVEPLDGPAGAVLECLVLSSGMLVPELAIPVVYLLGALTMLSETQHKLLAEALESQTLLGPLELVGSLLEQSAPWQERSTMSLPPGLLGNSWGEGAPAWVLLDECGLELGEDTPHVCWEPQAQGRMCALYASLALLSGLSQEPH
Description: (§1) To analyze the interactions between commonly used drugs and proteins expressed from human full-length cDNA clones while keeping both the proteins and the compounds in non-modified, non-immobilized state, size exclusion chromatography (SEC) and mass analysis were used in combination. The specific procedures are shown below.
(§2) The compound-protein mixture prepared in step 1 was subjected to chromatography using an SEC column, the compound and the protein were separated by SEC, and the compound that interacted with the bound compound or protein contained in the protein fraction was analyzed using a mass analyzer.
(§3) Protein concentrations were measured using BCA Protein Assay (PIERCE), in consideration of the purity calculated by SDS-PAGE.
(§4) Mass analysis was performed using LCQ DECA XP (Thermoelectron) or Q-TOF micro (Micromass), equipped with an ESI probe. The LC pump used was Agilent 1100 (Yokogawa Analytical Systems), and the autosampler used was HTC-PAL (CTC Analytics) equipped with a cooling stacker. The SEC column used was a micro-LC column or a 384-well spin column. […]
(§5) In the 384-well spin column method, Unifilter 100 (Whatman), packed with 10 μL (dry volume) of Bio-Gel P6 (BIO-RAD) and swollen with milliQ water, was used as the SEC column. […] The SEC spin column was mounted on an acetonitrile-aliquoted 384-well U-bottom plate and centrifuged; the SEC spin column filtrate, which is a protein fraction, was recovered in 50% acetonitrile. The protein precipitate produced by the acetonitrile was removed via centrifugation and filtration for deproteinization; the resulting filtrate was concentrated by centrifugal concentration and re-dissolved in 10 μL of 50% methanol to obtain a mass analysis sample. The mobile phase supplied to the mass analyzer was 0.1% formic acid/50% methanol solution in the positive ion mode, and 0.1% ammonia/50% methanol solution in the negative ion mode; these mobile phases were used at a flow rate of 40 μL/min. 2-μL of mass analysis samples were injected using an autosampler at 2-minute intervals; the mass spectral intensity of the compound was measured to retrieve the spectral intensity of the pharmaceutical compound contained in the SEC spin column filtrate (protein fraction eluted from SEC).

FLJ20972-derived protein = system: FLJ20972-derived protein
Description: as §1, §2, §3
Mass analysis was performed using LCQ DECA XP (Thermoelectron) or Q-TOF micro (Micromass), equipped with an ESI probe. The LC pump used was Agilent 1100 (Yokogawa Analytical Systems), and the autosampler used was HTC-PAL (CTC Analytics) equipped with a cooling stacker. The SEC column used was a micro-LC column or a 384-well spin column.
The SEC column used for the micro-LC method was a TSKgel super SW2000 (TOSOH) cartridge column (1.0 mm ID×10 mm) or a TSKgel super SW2000 (TOSOH) column (1.0 mm ID×30 mm), with 10 mM ammonium acetate aqueous solution serving as the mobile phase. A conditioning solvent (0.5% formic acid/methanol solution in the positive ion mode, 0.5% ammonia/methanol solution in the negative ion mode) was mixed downstream of the SEC column via a Tee connector; the column was connected to the ESI of the mass analyzer. The flow rate was set at 40 μL/min for the SEC column side, and 10 μL/min for the conditioning solvent side.
Specifically, if the protein and the compound interact with each other, the acceleration of the elution of the compound molecules that are bound to the protein when the protein is overtaking the compound in the SEC column occurs, resulting in a change in the mass chromatogram of the compound depending on the presence or absence of the protein.
as §5

FLJ41550-derived protein = experiment: SEC/MS interaction analysis, FLJ41550-derived protein (SAMHD1); type: binding, human
Description: as §1, §2, §3, §4, §5

[2] = compound 12.5 μM, protein 10 μM
[3] = compound 12.5 μM, protein 25 μM
[4] = compound 62.5 μM, protein 10 μM
[5] = compound 62.5 μM, protein 25 μM
[6] = spin column method, doses of both compound and protein varied

interaction judged from mass spectrum peak intensity of the compound in the spin column filtrate (FLJ38897-derived protein): there was an interaction
Compound: C1CCC(C(CC2CCCCN2)C2CCCCC2)CC1 (stereo not shown) [perhexyline]
FLJ No of the derived protein with which the compound was judged to exhibit a concentration-dependent interaction ([1]; listed as perhexiline): FLJ37909; also recorded: FLJ38897

Compound: CNCCCC1c2ccccc2C=Cc2ccccc21 [protriptyline]
spectrum intensity of the compound in the SEC spin column filtrate (FLJ20972-derived protein; compound 12.5 μM, protein 0 μM): 39179
spectrum intensity of the compound in the SEC spin column filtrate (FLJ20972-derived protein; compound 12.5 μM, protein 5 μM): 27260
spectrum intensity of the compound in the SEC spin column filtrate (FLJ20972-derived protein; [2]): 39545
spectrum intensity of the compound in the SEC spin column filtrate (FLJ20972-derived protein; [3]): 44522
spectrum intensity of the compound in the SEC spin column filtrate (FLJ20972-derived protein; compound 25 μM, protein 0 μM): 53214
spectrum intensity of the compound in the SEC spin column filtrate (FLJ20972-derived protein; compound 25 μM, protein 5 μM): 76771
spectrum intensity of the compound in the SEC spin column filtrate (FLJ20972-derived protein; compound 25 μM, protein 10 μM): 105694
spectrum intensity of the compound in the SEC spin column filtrate (FLJ20972-derived protein; compound 25 μM, protein 25 μM): 132099
spectrum intensity of the compound in the SEC spin column filtrate (FLJ20972-derived protein; compound 62.5 μM, protein 0 μM): 239324
spectrum intensity of the compound in the SEC spin column filtrate (FLJ20972-derived protein; [4]): 390017
spectrum intensity of the compound in the SEC spin column filtrate (FLJ20972-derived protein; [5]): 754873
interaction judged from spectrum intensity of the compound in the SEC spin column filtrate (protein fraction eluted from SEC) (FLJ20972-derived protein; [6]): concentration-dependent interaction

Compound: CN1CCN(CCCN2c3ccccc3Sc3ccc(S(=O)(=O)N(C)C)cc32)CC1 [thioproperasine, thioproperazine]
FLJ No of the derived protein with which the compound was judged to exhibit a concentration-dependent interaction [1]: FLJ37909; also recorded: FLJ41550
spectrum intensity of the compound in the SEC spin column filtrate (FLJ41550-derived protein; compound 12.5 μM, protein 0 μM): 252410
spectrum intensity of the compound in the SEC spin column filtrate (FLJ41550-derived protein; compound 12.5 μM, protein 5 μM): 377673
spectrum intensity of the compound in the SEC spin column filtrate (FLJ41550-derived protein; [2]): 478699
spectrum intensity of the compound in the SEC spin column filtrate (FLJ41550-derived protein; [3]): 941513
spectrum intensity of the compound in the SEC spin column filtrate (FLJ41550-derived protein; compound 25 μM, protein 0 μM): 262646
spectrum intensity of the compound in the SEC spin column filtrate (FLJ41550-derived protein; compound 25 μM, protein 5 μM): 778927
spectrum intensity of the compound in the SEC spin column filtrate (FLJ41550-derived protein; compound 25 μM, protein 10 μM): 1198533
spectrum intensity of the compound in the SEC spin column filtrate (FLJ41550-derived protein; compound 25 μM, protein 25 μM): 983016
spectrum intensity of the compound in the SEC spin column filtrate (FLJ41550-derived protein; compound 62.5 μM, protein 0 μM): 1132948
spectrum intensity of the compound in the SEC spin column filtrate (FLJ41550-derived protein; compound 62.5 μM, protein 5 μM): 1457362
spectrum intensity of the compound in the SEC spin column filtrate (FLJ41550-derived protein; [4]): 2445959
spectrum intensity of the compound in the SEC spin column filtrate (FLJ41550-derived protein; [5]): 2997892
interaction judged from spectrum intensity of the compound in the SEC spin column filtrate (protein fraction eluted from SEC) (FLJ41550-derived protein; [6]): concentration-dependent interaction

— patent US20090143285A1, “TARGET PROTEIN AND TARGET GENE FOR DRUG DISCOVERY AND SCREENING METHOD” (REVERSE PROTEOMICS RESEARCH INSTITUTE CO., LTD., priority 2005, published 2009)
